Data reported in patent publication US9388175B2, “2-aniline-4-aryl substituted thiazole derivatives” (Janssen Pharmaceutica N.V., priority 2005, dated 2016).
Counter-ions that a name gives are not always drawn.

Tested on: not given
Assay: not given
Conditions: not given
`Fc1ccc(Nc2nc(-c3cnc4ccccn34)cs2)cc1C(F)(F)F` (as salt: HCl) [Compound 9] showed a melting point of 248 °C. With `NC(=O)Cc1sc(Nc2cccc(C(F)(F)F)c2)nc1-c1ccccc1` [Compound 1, 2-[4-Phenyl-2-(3-trifluoromethyl-phenylamino)-thiazol-5-yl]-acetamide] the melting point was 186 to 187 °C. Work on `Cc1cc(Nc2nc(-c3ccc(Cl)nc3)cs2)ccc1F` [Compound 2] yielded a melting point of 175 °C. Compound `CS(=O)(=O)NCc1sc(Nc2cccc(C(F)(F)F)c2)nc1-c1cccnc1` [Compound 109] has a melting point of 213.6 to 219.8 °C. With `NC(=O)Cc1sc(Nc2cc(Cl)ccc2Cl)nc1-c1ccncc1` [Compound 113, 2-[(2,5-dichlorophenyl)amino]-4-(4-pyridinyl)-5-thiazoleacetamide] the melting point was 249.6 to 257.1 °C.

Biological target: T1, hα7-wt nAChR stably expressed in the GH4C1 cell line (Homo sapiens, UniProt P36544)
T1 construct: expressed in transfected cells
T1 sequence (P36544 23-502): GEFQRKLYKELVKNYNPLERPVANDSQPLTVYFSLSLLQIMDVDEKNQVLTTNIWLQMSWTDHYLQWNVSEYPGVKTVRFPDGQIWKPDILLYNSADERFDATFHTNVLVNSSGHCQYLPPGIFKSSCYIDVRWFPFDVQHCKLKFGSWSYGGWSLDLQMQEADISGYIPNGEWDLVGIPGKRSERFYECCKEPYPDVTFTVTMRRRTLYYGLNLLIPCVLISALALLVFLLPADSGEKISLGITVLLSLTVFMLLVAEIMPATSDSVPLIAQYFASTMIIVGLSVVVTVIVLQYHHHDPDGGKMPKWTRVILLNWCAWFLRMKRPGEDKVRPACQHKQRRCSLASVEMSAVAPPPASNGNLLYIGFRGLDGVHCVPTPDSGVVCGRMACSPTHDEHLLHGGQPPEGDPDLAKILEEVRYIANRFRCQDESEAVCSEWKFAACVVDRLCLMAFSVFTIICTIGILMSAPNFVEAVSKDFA
Assay: Ca2+ flux imaging (FLIPR) of PAM activity with choline as agonist
Type: cell-based
Conditions: efficacy relative to 100 μM choline alone (defined as 1); peak fluorescence, fluo-4AM; compounds tested 0.1 μM to 30 μM, efficacy criterion at 10 μM
From the text: Stable expression in mammalian cells in general and rat GH4C1 cells in particular, of cDNA clones encoding the human α7 wild-type sequence (hα7-wt nAChR) and in which the coding region is placed downstream of a promoter results in the appearance of functional α7 nAChRs on the surface of the mammalian cells. This technique has provided a powerful means of assessing the function of α7 wild-type protein. Given the fact that the cation permeability of the α7 nicotinic receptor preferentially favours calcium, fluorescent imaging of Ca^2+ flux through the hα7-wt nAChR stably expressed in the GH4C1 cell line was used as a first means of assaying modulator activity of the compounds of the present invention.
a) Assay Buffer • Hanks buffered saline solution (HBSS, Invitrogen, Belgium), supplemented with 10 mM HEPES (Invitrogen, Belgium), CaCl2 to a final concentration of 5 mM, 0.1% Bovine serum albumin (Sigma-Aldrich NV, Belgium), 2.5 mM probenecid (Sigma-Aldrich NV, Belgium).
b) Calcium-Sensitive Dye—Fluo-4AM • Fluo-4AM (Molecular Probes, USA) was dissolved in DMSO containing 10% Pluronic acid (Molecular Probes, USA) to give a stock solution which was aliquoted and could be stored at −20° C. until later use. On the day of the experiment Fluo-4AM stock was defrosted and diluted in DMEM/F12 (Invitrogen, Belgium) containing 2.5 mM probenicid and 0.1% BSA to give a final concentration of 2 μM.
c) 96-well Plates • BD Biocoat poly-D-lysine 96-well black/clear bottom plates (BD Biosciences, Belgium)
d) Calcium Flux Measurement • A Fluorimetric Imaging Plate Reader (FLIPR, Molecular Devices Corporation, Sunnyvale, USA) was used to measure intracellular free-calcium flux signals
Monolayers of hα7-wt nAChR-expressing cells were grown in multi-well plates, in particular black-sided, transparent bottomed 96 well plates coated with poly-D-lysine for 24 hours prior to loading with a fluorescent calcium indicator, in a particular embodiment loading with fluo-3 or fluo-4AM for up to 90 minutes, in an even more particular embodiment loading with fluo-4AM for up to 90 minutes, and in a preferred embodiment loading with fluo-4AM for 60 minutes.
In a particular embodiment, the α7 nicotinic receptor agonist was choline, a more particular embodiment choline applied at a sub-maximal concentration of 100 μM.
A control response to choline was calculated on each plate from the difference in peak fluorescence in wells receiving either choline or assay buffer alone. Compounds of the present invention were tested at a concentration range from 0.1 μM to 30 μM.
The activity ranges are defined as follows; A denotes an activity range from 1.1 till 1.5, B denotes an activity range from 1.5 till 2.0, C denotes an activity range from 2.0 till 3.0, D denotes an activity range from 3.0 till 4.5 and E denotes an efficacy from at least 4.5.
For `NC(=O)Cc1sc(Nc2cccc(C(F)(F)F)c2)nc1-c1ccccc1` [Compound 1, 2-[4-Phenyl-2-(3-trifluoromethyl-phenylamino)-thiazol-5-yl]-acetamide], the “Activity Range” value was “C (C denotes an activity range from 2.0 till 3.0)”. For `Cc1cc(Nc2nc(-c3ccc(Cl)nc3)cs2)ccc1F` [Compound 2], the “Activity Range” value was “D (D denotes an activity range from 3.0 till 4.5)”. With `CS(=O)(=O)NCc1sc(Nc2cccc(C(F)(F)F)c2)nc1-c1cccnc1` [Compound 109] the “Activity Range” value was “E (E denotes an efficacy from at least 4.5)”. With `NC(=O)Cc1sc(Nc2cc(Cl)ccc2Cl)nc1-c1ccncc1` [Compound 113, 2-[(2,5-dichlorophenyl)amino]-4-(4-pyridinyl)-5-thiazoleacetamide] the “Activity Range” value was “E (E denotes an efficacy from at least 4.5)”. With `COc1cc(OC)c(Nc2nc(-c3ccncc3)c(CC(=O)N3CCCC3)s2)cc1Cl` [Compound 135] the “Activity Range” value was “E (E denotes an efficacy from at least 4.5)”. With `Cc1sc(Nc2ccc(Br)cc2)nc1-c1cccnc1` [Compound 137] the “Activity Range” value was “D (D denotes an activity range from 3.0 till 4.5)”. For `Cc1ccc(Nc2nc(-c3cccnc3)c(C)s2)cc1` [Compound 138], the “Activity Range” value was “E (E denotes an efficacy from at least 4.5)”. In the case of `COc1ccc(Nc2nc(-c3cccnc3)c(C)s2)cc1` [Compound 139], the “Activity Range” value is reported as “D (D denotes an activity range from 3.0 till 4.5)”. In the case of `COCc1nc(Nc2cc(Cl)ccc2Cl)sc1C(=O)OC` [Compound 140], the “Activity Range” value is reported as “E (E denotes an efficacy from at least 4.5)”. With `CSc1cccc(Nc2nc(-c3cccnc3)c(C)s2)c1` [Compound 141] the “Activity Range” value was “C (C denotes an activity range from 2.0 till 3.0)”. For `CCOC(=O)c1ccc(Nc2nc(-c3cccnc3)c(C)s2)cc1` [Compound 142], the “Activity Range” value was “E (E denotes an efficacy from at least 4.5)”. In the case of `CCOC(=O)c1sc(Nc2cccc(C(F)(F)F)c2)nc1C` [Compound 143], the “Activity Range” value is reported as “E (E denotes an efficacy from at least 4.5)”. With `CCOC(=O)c1sc(Nc2ccc(OC)cc2)nc1C` [Compound 144] the “Activity Range” value was “E (E denotes an efficacy from at least 4.5)”. In the case of `CCOC(=O)c1sc(Nc2cccc(C(F)(F)F)c2)nc1C1CC1` [Compound 145], the “Activity Range” value is reported as “E (E denotes an efficacy from at least 4.5)”. With `CCOC(=O)c1sc(Nc2ccc(OC)cc2)nc1C1CC1` [Compound 146] the “Activity Range” value was “E (E denotes an efficacy from at least 4.5)”. With `CCOC(=O)c1sc(Nc2cccc(C(F)(F)F)c2)nc1C(F)(F)F` [Compound 147] the “Activity Range” value was “E (E denotes an efficacy from at least 4.5)”. For `COC(=O)c1sc(Nc2cccc(C(F)(F)F)c2)nc1C(C)C` [Compound 148], the “Activity Range” value was “E (E denotes an efficacy from at least 4.5)”. With `COC(=O)c1sc(Nc2cc(Cl)ccc2Cl)nc1C(C)C` [Compound 149] the “Activity Range” value was “E (E denotes an efficacy from at least 4.5)”. For `COC(=O)c1sc(Nc2ccc(OC)cc2)nc1C(C)C` [Compound 151], the “Activity Range” value was “E (E denotes an efficacy from at least 4.5)”. For `CCOC(=O)c1sc(Nc2cc(Cl)ccc2Cl)nc1C1CC1` [Compound 152], the “Activity Range” value was “E (E denotes an efficacy from at least 4.5)”. With `CCOC(=O)c1sc(Nc2cc(Cl)ccc2Cl)nc1C(F)F` [Compound 153] the “Activity Range” value was “E (E denotes an efficacy from at least 4.5)”. In the case of `CCOC(=O)c1sc(Nc2ccc(OC)cc2)nc1C(F)(F)F` [Compound 154], the “Activity Range” value is reported as “E (E denotes an efficacy from at least 4.5)”. For `CCCc1nc(Nc2cccc(C(F)(F)F)c2)sc1C(=O)OCC` [Compound 155], the “Activity Range” value was “E (E denotes an efficacy from at least 4.5)”. In the case of `CCCc1nc(Nc2cc(Cl)ccc2Cl)sc1C(=O)OCC` [Compound 156], the “Activity Range” value is reported as “E (E denotes an efficacy from at least 4.5)”. For `COCCc1nc(Nc2cc(Cl)ccc2Cl)sc1C(=O)OC` [Compound 157], the “Activity Range” value was “E (E denotes an efficacy from at least 4.5)”. For `COCCc1nc(Nc2ccc(OC)cc2)sc1C(=O)OC` [Compound 158], the “Activity Range” value was “E (E denotes an efficacy from at least 4.5)”. With `COCCc1nc(Nc2cccc(C(F)(F)F)c2)sc1C(=O)OC` [Compound 159] the “Activity Range” value was “E (E denotes an efficacy from at least 4.5)”. With `CCOC(=O)c1sc(Nc2cccc(C(F)(F)F)c2)nc1C1CCCN(C(=O)OCc2ccccc2)C1` (stereo not shown) [Compound 160] the “Activity Range” value was “E (E denotes an efficacy from at least 4.5)”. With `CC(C)NC(=O)Cc1sc(Nc2cc(Cl)ccc2Cl)nc1-c1ccncc1` [Compound 161, 2-[(2,5-dichlorophenyl)amino]-N-(1-methylethyl)-4-(4-pyridinyl)-5-thiazoleacetamide] the “Activity Range” value was “E (E denotes an efficacy from at least 4.5)”. In the case of `O=C(Cc1sc(Nc2cc(Cl)ccc2Cl)nc1-c1ccncc1)N1CCCC1` [Compound 162], the “Activity Range” value is reported as “E (E denotes an efficacy from at least 4.5)”. For `CCOC(=O)NCc1sc(Nc2cccc(C(F)(F)F)c2)nc1-c1cccnc1` [Compound 168], the “Activity Range” value was “E (E denotes an efficacy from at least 4.5)”. For `O=C(Nc1cccnc1)c1sc(Nc2ccc(F)cc2)nc1-c1ccccc1` [Compound 169, 5-Thiazolecarboxamide, 2-[(4-fluorophenyl)amino]-4-phenyl-N-3-pyridinyl-], the “Activity Range” value was “D (D denotes an activity range from 3.0 till 4.5)”. With `Cc1ccc(Nc2nc(-c3ccccc3)c(C(=O)Nc3cccnc3)s2)c(C)c1` [Compound 170, 5-Thiazolecarboxamide, 2-[(2,4-dimethylphenyl)amino]-4-phenyl-N-3-pyridinyl-] the “Activity Range” value was “E (E denotes an efficacy from at least 4.5)”. In the case of `O=C(Nc1cccnc1)c1sc(Nc2ccccc2)nc1-c1ccccc1` [Compound 171, 5-Thiazolecarboxamide, 4-phenyl-2-(phenylamino)-N-3-pyridinyl-], the “Activity Range” value is reported as “E (E denotes an efficacy from at least 4.5)”. In the case of `Cc1ccccc1Nc1nc(-c2ccccc2)c(C(=O)Nc2cccnc2)s1` [Compound 172, 5-Thiazolecarboxamide, 2-[(2-methylphenyl)amino]-4-phenyl-N-3-pyridinyl-], the “Activity Range” value is reported as “E (E denotes an efficacy from at least 4.5)”. In the case of `COC(=O)CCc1sc(Nc2ccc(OC)cc2)nc1-c1ccc(OC)cc1` [Compound 173, 5-Thiazolepropanoic acid, 4-(4-methoxyphenyl)-2-[(4-methoxyphenyl)amino]-, methyl ester], the “Activity Range” value is reported as “D (D denotes an activity range from 3.0 till 4.5)”. For `CCOC(=O)c1sc(Nc2cc(Cl)ccc2Cl)nc1-c1ccccc1` [Compound 174, 5-Thiazolecarboxylic acid, 2-[(2,5-dichlorophenyl)amino]-4-phenyl-, ethyl ester], the “Activity Range” value was “E (E denotes an efficacy from at least 4.5)”. For `FC(F)(F)c1cccc(Nc2nc(-c3ccccc3)cs2)c1` [int. 1], the “Activity Range” value was “C (C denotes an activity range from 2.0 till 3.0)”. For `N#CCc1sc(Nc2cccc(C(F)(F)F)c2)nc1-c1ccccc1` [int. 3, [4-Phenyl-2-(3-trifluoromethyl-phenylamino)-thiazol-5-yl]-acetonitrile], the “Activity Range” value was “D (D denotes an activity range from 3.0 till 4.5)”. For `CCOC(=O)c1sc(Nc2ccc(Cl)cc2Cl)nc1-c1ccccc1` [int. 6, 2-(2,4-Dichloro-phenylamino)-4-phenyl-thiazole-5-carboxylic acid ethyl ester], the “Activity Range” value was “E (E denotes an efficacy from at least 4.5)”. For `Fc1cccc(-c2csc(Nc3cccc(C(F)(F)F)c3)n2)c1` [int. 12], the “Activity Range” value was “C (C denotes an activity range from 2.0 till 3.0)”. For `COc1cc(OC)c(Nc2nc(-c3ccc4c(c3)OCCO4)c(CO)s2)cc1Cl` [int. 19, 2-[(5-chloro-2,4-dimethoxyphenyl)amino]-4-(2,3-dihydro-1,4-benzodioxin-6-yl)-5-thiazolemethanol], the “Activity Range” value was “E (E denotes an efficacy from at least 4.5)”. In the case of `COc1cc(OC)c(Nc2nc(-c3ccc4c(c3)OCCO4)c(CC#N)s2)cc1Cl` [int. 20], the “Activity Range” value is reported as “E (E denotes an efficacy from at least 4.5)”. With `COc1cc(OC)c(Nc2nc(-c3ccncc3)c(CO)s2)cc1Cl` [int. 25] the “Activity Range” value was “C (C denotes an activity range from 2.0 till 3.0)”.
